Data reported in ChEMBL document CHEMBL5154693, “N-Methylpropargylamine-Conjugated Hydroxamic Acids as Dual Inhibitors of Monoamine Oxidase A and Histone Deacetylase for Glioma Treatment” (J Med Chem, 2022).
Active and inactive are the calls of the source. The rule behind the calls is not given here.

Experiments:
[1] = target: T1, Amine oxidase [flavin-containing] B (Mus musculus, UniProt Q8BW75); assay: Inhibition of wild type MAO-B in mouse brain using methyl ester luciferin as substrate at 1 uM pre-incubated for 15 mins followed by substrate addition measured after 1 hr by MAO-Glo assay relative to control; format: tissue-based
T1 sequence (Q8BW75 whole entry): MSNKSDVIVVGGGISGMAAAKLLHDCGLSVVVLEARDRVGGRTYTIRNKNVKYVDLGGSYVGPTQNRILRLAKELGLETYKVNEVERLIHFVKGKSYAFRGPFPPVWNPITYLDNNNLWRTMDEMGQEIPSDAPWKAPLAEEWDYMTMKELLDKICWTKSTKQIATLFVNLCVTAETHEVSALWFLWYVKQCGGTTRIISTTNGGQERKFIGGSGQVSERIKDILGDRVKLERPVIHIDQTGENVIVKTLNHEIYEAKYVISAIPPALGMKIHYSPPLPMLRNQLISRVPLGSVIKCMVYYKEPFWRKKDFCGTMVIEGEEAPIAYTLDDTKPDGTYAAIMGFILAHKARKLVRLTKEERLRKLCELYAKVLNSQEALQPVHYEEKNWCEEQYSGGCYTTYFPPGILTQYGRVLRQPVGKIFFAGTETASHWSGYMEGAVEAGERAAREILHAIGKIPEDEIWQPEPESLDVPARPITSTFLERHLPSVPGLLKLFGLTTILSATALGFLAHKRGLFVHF

[2] = Cytotoxicity against mouse GL26 cells assessed as inhibition of cell growth incubated for 48 hrs by MTT assay; format: functional, cell-based; details: GL26, 48 h
[3] = tested on: U-251; assay: cells; format: functional, cell-based; details: Homo sapiens, U-251, 48 h
Description: Cytotoxicity against human TMZ-sensitive U251 cells assessed as inhibition of cell growth incubated for 48 hrs by MTT assay

[4] = tested on: U-251; assay: cells; format: functional, cell-based; details: Homo sapiens, U-251, 48 h; remark: listed apart in the source
Description: Cytotoxicity against human TMZ-resistant U251 cells assessed as inhibition of cell growth incubated for 48 hrs by MTT assay

[5] = tested on: Mus musculus; assay: In vivo inhibition of MAO-A in mouse xenografted with mouse GL26 cells as decrease in MAO activity in brain at 10 mg/kg by radiometric analysis; format: functional, organism-based
[6] = tested on: Mus musculus; assay: In vivo inhibition of MAO-A in mouse xenografted with mouse GL26 assessed as decrease in MAO activity in tumor at 10 mg/kg by radiometric analysis; format: functional, organism-based
[7] = Toxicity in mouse bearing intracranial tumor assessed as median survival time at 10 mg/kg, ip for 10 days (Rvb= 13.8 days); format: organism-based; details: in vivo, 240 h, time 10 day
[8] = Toxicity in mouse bearing intracranial tumor assessed as last day of survival at 10 mg/kg,ip for 10 days (Rvb=16 days); format: organism-based; details: in vivo, 240 h, time 10 day
[9] = Toxicity in mouse bearing intracranial tumor assessed as last day of survival at 5 mg/kg, ip in presence of SAHA for 10 days (Rvb=16 days); format: organism-based; details: in vivo, 240 h, time 10 day
[10] = Toxicity in mouse bearing intracranial tumor assessed as last day of survival at 10 mg/kg, ip in presence of SAHA for 10 days (Rvb=16 days); format: organism-based; details: in vivo, 240 h, time 10 day
[11] = Toxicity in mouse bearing intracranial tumor assessed as assessed as […] at 10 mg/kg, ip for 14 days treatment started at 5 days post-infection (Rvb=14 days); format: organism-based; details: in vivo, 336 h, time 14 day
[12] = Toxicity in mouse bearing intracranial tumor assessed as assessed as median survival time at 10 mg/kg, ip for 14 days treatment started at 5 days post-infection (Rvb=12.8 days); format: organism-based; details: in vivo, 336 h, time 14 day
[13] = Toxicity in mouse bearing intracranial tumor assessed as median survival time at 5 mg/kg, ip in presence of SAHA for 10 days (Rvb=13.8 days); format: organism-based; details: in vivo, 240 h, time 10 day
[14] = Toxicity in mouse bearing intracranial tumor assessed as median survival time at 10 mg/kg, ip in presence of SAHA for 10 days (Rvb=13.8 days); format: organism-based; details: in vivo, 240 h, time 10 day
[15] = Toxicity in mouse bearing intracranial tumor assessed as assessed as median survival time at 10 mg/kg, ip treatment started at 7 dpi (Rvb=18.25 days); format: organism-based; details: in vivo, 438 h
[16] = Toxicity in mouse bearing intracranial tumor assessed as last day of survival at 10 mg/kg, ip treatment started at 7 dpi (Rvb=19 days); format: organism-based; details: in vivo, 456 h

Q: With C#CCN(C)CCCOc1ccc(Cl)cc1Cl [CLORGILINE] as the molecule, how does the inhibition at 1 µM [1] read?
A: < 25%

Q: And the IC50 [2]?
A: 169 µM

Q: And the IC50 [3]?
A: 175 µM

Q: What about the IC50 [4] of the same molecule?
A: 136 µM

Q: What about the Activity [5] of the same molecule?
A: Active

Q: And the Activity [6]?
A: Active

Q: And the Survival [7]?
A: 13.8 days

Q: And the Survival [8]?
A: 17 days

Q: What about the Survival [9] of the same molecule?
A: 14 days

Q: What about the Survival [10] of the same molecule?
A: 18 days

Q: What about the MST [11] of the same molecule?
A: 11.75 days

Q: What about the Survival [12] of the same molecule?
A: 15 days

Q: What about the MST [13] of the same molecule?
A: 13.8 days

Q: And the MST [14]?
A: 14.4 days

Q: What about the MST [15] of the same molecule?
A: 17.25 days

Q: What about the Survival [16] of the same molecule?
A: 19 days
